14 molecules from patent publication US8435984B2, “Tertiary amine substituted peptides useful as inhibitors of HCV replication” (Achillion Pharmaceuticals, Inc., priority 2007, dated 2013) can be followed below.

In this test the test system is HCV replicon. The test is described as follows: HCV replicon replication assay (NPT ELISA) in Huh-7 replicon-containing cells. The class given is cell-based, Hepatitis C virus. Particulars: Hepatitis C virus, 72 h; inhibition of HCV replicon replication, Huh-7 HCV replicon-containing cells, three days. The protocol: Compounds claimed herein are tested for the ability to inhibit viral replication of the Hepatitis C replicon in cultured cells in which the HCV replicon construct has been incorporated. The HCV replicon system was described by Bartenschlager, et. al (Science, 285, pp. 110-113 (1999)). The replicon system is predictive of in vivo anti-HCV activity; compounds that are active in humans uniformly evidence activity in the replicon assay.
In this assay HCV replicon containing cells are treated with different concentrations of the test compound to ascertain the ability of the test compound to suppress replication of the HCV replicon. As a positive control, HCV replicon-containing cells are treated with different concentrations of interferon alpha, a known inhibitor of HCV replication. The replicon assay system includes Neomycin Phosphotransferase (NPT) as a component of the replicon itself in order to detect the transcription of replicon gene products in the host cell. Cells in which the HCV replicon is actively replicating have high levels of NPT; the level of NPT is proportional to HCV replication. […] The NPT level of each sample is measured using a captured ELISA.
The HCV replicon contains, 5′-3′, the HCV-IRES, the neomycin phosphotransferase (neo) gene, the IRES of encephalomyocarditis virus, which directs translation of HCV sequences NS3 to NS5B, and the 3′-NTR. The sequence of the HCV replicon has been deposited in GenBank (Accession no. AJ242652).
The replicon is transfected into Huh-7 cells using standard methods such as electroporation.
HCV replicon-containing cells are rinsed with once PBS once; 2 mls of trypsin are then added. Cells are incubated at 37° C. in a 5% CO2 incubator for 3-5 minutes. 10 mls of complete medium is added to stop the reaction. Cells are blown gently, put into a 15 ml tube, and spun at 1200 rpm for four minutes. The trypsin/medium solution is removed and 5 mls of medium (500 ml DMEM (high glucose)) from BRL catalog #12430-054; 50 mls 10% FBS, 5% Geneticin G418 (50 mg/ml, BRL catalog #10131-035), 5 ml MEM non-essential amino acids (100×BRL #11140-050) and 5 ml pen-strep (BRL #15140-148) is added. The cells and media are mixed carefully
Cells are plated with screening medium (500 ml DMEM (BRL #21063-029), 50 ml FBS (BRL #10082-147) and 5 ml MEM non-essential amino acid (BRL #11140-050) at 6000-7500 cells/100 μl/well of 96 well plate (6-7.5×10^5 cells/10 ml/plate). Plates are placed into 37° C. 5% CO2 incubator overnight. 6D. Assay
The following morning, drugs (test compounds or interferon alpha) are diluted in 96 well U bottom plates with media or DMSO/media, depending on the final concentration chosen for screening. Generally for 6 concentrations of each test compounds ranging from 10 micromolar to 0.03 micromolar are applied. 100 μl of the test compound dilution is placed in wells of the 96 well plate containing the HCV replicon cells. Media without drug is added to some wells as a negative controls. DMSO is known to affect cell growth. Therefore, if drugs diluted in DMSO are used, all wells, including negative control (media only) and positive control (interferon alpha) wells, must contain the same concentration of DMSO, for single dose screening. The plates are incubated at 37° C. in a humidified 5% CO2 environment for three days.
On day four, the NTPII assay is quantitated. The medium is poured from the plates and the plates are washed once in 200 μl of PBS. The PBS is then decanted and the plates tapped in a paper towel to remove any remaining PBS. Cells are fixed in situ with 100 id/well of pre-cooled (−20° C.) methanol:acetone (1:1) and the plates are placed at −20° C. for 30 minutes.
The fixing solution is poured from the plates and the plates allowed to air-dry completely (approximately one hour). The appearance of the dried cell layer is recorded and the density of the cells in the toxic wells is scored with the naked eye. […]

`C=CC1CC1(NC(=O)[C@@H]1C[C@@H](Oc2cc(-c3ccccc3)nc3cc(OC)ccc23)CN1C(=O)[C@H](c1ccccc1)N1CCCCC1)C(=O)O` (stereo partly drawn) [Compound 56, 1-((2S,4R)-4-(7-methoxy-2-phenylquinolin-4-yloxy)-1-((S)-2-phenyl-2-(piperidin-1-yl)acetyl)pyrrolidine-2-carboxamido)-2-vinylcyclopropanecarboxylic acid]: the half-maximal effective concentration (EC50) (as a rule, the concentration needed to bring the measured effect to its halfway point) was more than 100 µM.
As for `C=CC1CC1(NC(=O)[C@@H]1C[C@@H](Oc2cc(-c3ccccc3)nc3cc(OC)ccc23)CN1C(=O)[C@H](C(C)C)N1CCCCC1)C(=O)O` (stereo partly drawn) [Compound 57, 1-((2S,4R)-4-(7-methoxy-2-phenylquinolin-4-yloxy)-1-((S)-3-methyl-2-(piperidin-1-yl)butanoyl)pyrrolidine-2-carboxamido)-2-vinylcyclopropanecarboxylic acid], the EC50 was less than 100 µM.
The value for `C=CC1CC1(NC(=O)[C@@H]1C[C@@H](Oc2cc(-c3ccccc3)nc3cc(OC)ccc23)CN1C(=O)[C@H](C1CCCCC1)N1CCCCC1)C(=O)O` (stereo partly drawn) [Compound 58, 1-((2S,4R)-1-((S)-2-cyclohexyl-2-(piperidin-1-yl)acetyl)-4-(7-methoxy-2-phenylquinolin-4-yloxy)pyrrolidine-2-carboxamido)-2-vinylcyclopropanecarboxylic acid] was less than 100 µM; that for `C=CC1CC1(NC(=O)[C@@H]1C[C@@H](Oc2cc(-c3ccccc3)nc3cc(OC)ccc23)CN1C(=O)[C@H](C)N1CCCCC1)C(=O)O` (stereo partly drawn) [Compound 59, 1-((2S,4R)-4-(7-methoxy-2-phenylquinolin-4-yloxy)-1-((S)-2-(piperidin-1-yl)propanoyl)pyrrolidine-2-carboxamido)-2-vinylcyclopropanecarboxylic acid] was more than 100 µM.
The value for `CCOC(=O)C12CC1/C=C\CCCCC[C@H](N1CCCCC1)C(=O)N1C[C@H](Oc3cc(-c4ccccc4)nc4cc(OC)ccc34)C[C@H]1C(=O)N2` (stereo partly drawn) [Compound 60, (2R,6S,16aS,Z)-ethyl 2-(7-methoxy-2-phenylquinolin-4-yloxy)-5,16-dioxo-6-(piperidin-1-yl)-1,2,3,5,6,7,8,9,10,11,13a,14,14a, 15,16,16a-hexadecahydrocyclopropa [e]pyrrolo[1,2-a] [1,4]diazacyclopentadecine-14a-carboxylatc] was less than 100 µM; that for `COc1ccc2c(O[C@@H]3C[C@H]4C(=O)NC5(C(=O)O)CC5/C=C\CCCCC[C@H](N5CCCCC5)C(=O)N4C3)cc(-c3ccccc3)nc2c1` (stereo partly drawn) [Compound 61, (2R,6S,16aS,Z)-2-(7-methoxy-2-phenylquinolin-4-yloxy)-5,16-dioxo-6-(pipcridin-1-yl)-1,2,3,5,6,7,8,9,10,11,13a,14,14a, 15,16,16a-hexadecahydrocyclopropa [e]pyrrolo[1,2-a] [1,4]diazacyclopentadecine-14a-carboxylic acid] was less than 100 µM; that for `CCOC(=O)[C@]12C[C@@H]1/C=C\CCCCC[C@H](N1CCCCC1)C(=O)N1C[C@H](Oc3cc(-c4ccccc4)nc4cc(OC)ccc34)C[C@H]1C(=O)N2` [Compound 62, (2R,6S,13aR,14aS,16aS,Z)-ethyl 2-(7-methoxy-2-phenylquinolin-4-yloxy)-5,16-dioxo-6-(piperidin-1-yl)-1,2,3,5,6,7,8,9,10,11,13a,14,14a, 15,16,16a-hexadecahydrocyclopropa [e]pyrrolo[1,2-a] [1,4]diazacyclopentadecine-14a-carboxylate] was less than 100 µM.
`CCOC(=O)[C@@]12C[C@H]1/C=C\CCCCC[C@H](N1CCCCC1)C(=O)N1C[C@H](Oc3cc(-c4ccccc4)nc4cc(OC)ccc34)C[C@H]1C(=O)N2` [Compound 63, (2R,6S,13aS,14aR,16aS,Z)-ethyl 2-(7-methoxy-2-phenylquinolin-4-yloxy)-5,16-dioxo-6-(piperidin-1-yl)-1,2,3,5,6,7,8,9,10,11,13a,14,14a, 15,16,16a-hexadecahydrocyclopropa [e]pyrrolo[1,2-a] [1,4]diazacyclopentadecine-14a-carboxylate]: the 50% effective concentration (EC50) was less than 100 µM.
`C=CC1CC1(NC(=O)[C@@H]1C[C@@H](Oc2cc(-c3ccccc3)nc3cc(OC)ccc23)CN1C(=O)[C@H](C1CCCCC1)N1CCCCC1)C(=O)NS(=O)(=O)C1CC1` (stereo partly drawn) [Compound 64, (2S,4R)-1-((S)-2-cyclohexyl-2-(piperidin-1-yl)acetyl)-N-(1-(cyclopropylsulfonylcarbamoyl)-2-vinylcyclopropyl)-4-(7-methoxy-2-phenylquinolin-4-yloxy)pyrrolidine-2-carboxamide] displayed an EC50 of less than 100 µM.
`C=C[C@H]1C[C@@]1(NC(=O)[C@@H]1C[C@@H](Oc2cc(-c3ccccc3)nc3cc(OC)ccc23)CN1C(=O)[C@H](c1ccccc1)N1CCCCC1)C(=O)NS(=O)(=O)C1CC1` [Compound 65, (2S,4R)-N-((1S,2R)-1-(cyclopropylsulfonylcarbamoyl)-2-vinylcyclopropyl)-4-(7-methoxy-2-phenylquinolin-4-yloxy)-1-((S)-2-phenyl-2-(piperidin-1-yl)acetyl)pyrrolidine-2-carboxamide] came in with an EC50 of less than 100 µM.
As to `C=C[C@@H]1C[C@]1(NC(=O)[C@@H]1C[C@@H](Oc2cc(-c3ccccc3)nc3cc(OC)ccc23)CN1C(=O)[C@H](c1ccccc1)N1CCCCC1)C(=O)NS(=O)(=O)C1CC1` [Compound 66, (2S,4R)-N-((1R,2S)-1-(cyclopropylsulfonylcarbamoyl)-2-vinylcyclopropyl)-4-(7-methoxy-2-phenylquinolin-4-yloxy)-1-((S)-2-phenyl-2-(piperidin-1-yl)acetyl)pyrrolidine-2-carboxamide], the EC50 was less than 100 µM.
In turn, `C=CC1CC1(NC(=O)[C@@H]1C[C@@H](Oc2cc(-c3ccccc3)nc3cc(OC)ccc23)CN1C(=O)[C@H](C)N1CCCCC1)C(=O)NS(=O)(=O)C1CC1` (stereo partly drawn) [Compound 67, (2S,4R)-N-(1-(cyclopropylsulfonylcarbamoyl)-2-vinylcyclopropyl)-4-(7-methoxy-2-phenylquinolin-4-yloxy)-1-((S)-2-(piperidin-1-yl)propanoyl)pyrrolidine-2-carboxamide] yielded an EC50 of less than 100 µM.
Turning to `C=CC1CC1(NC(=O)[C@@H]1C[C@@H](Oc2cc(-c3ccccc3)nc3cc(OC)ccc23)CN1C(=O)[C@H](C(C)C)N1CCCCC1)C(=O)NS(=O)(=O)C1CC1` (stereo partly drawn) [Compound 68, (2S,4R)-N-(1-(cyclopropylsulfonylcarbamoyl)-2-vinylcyclopropyl)-4-(7-methoxy-2-phenylquinolin-4-yloxy)-1-((S)-3-methyl-2-(piperidin-1-yl)butanoyl)pyrrolidine-2-carboxamide], the EC50 was less than 100 µM.
In the case of `C=CC1CC1(NC(=O)[C@@H]1C[C@@H](Oc2cc(-c3ccccc3)nc3cc(OC)ccc23)CN1C(=O)[C@H](CC(C)C)N1CCCCC1)C(=O)NS(=O)(=O)C1CC1` (stereo partly drawn) [Compound 69, (2S,4R)-N-(1-(cyclopropylsulfonylcarbamoyl)-2-vinylcyclopropyl)-4-(7-methoxy-2-phenylquinolin-4-yloxy)-1-((S)-4-methyl-2-(piperidin-1-yl)pentanoyl)pyrrolidine-2-carboxamide], the EC50 is less than 100 µM.
